Measurements: US9540664B2, “Systems and methods for improving ethanol yield” (POET Research, Inc, priority 2011, dated 2017)
Where two headings read alike, the source gives them in different places.

How the values were obtained:
yeast [1] = settings: 20% w/v sucrose
Experimental: For this example, a laboratory media with sucrose was used. The media used was Yeast extract-Peptone (YP) broth supplemented with 20% w/v (200 g/L) sucrose. An acetic acid dose response (at 500, 1000, 1500, 2000, 2500, and 3000 ppm) was conducted. Control with no added acetic acid was also included. The fermenters were pH adjusted to 4.5 and after yeast inoculation the fermentations were carried out for 30 hours at 32° C. After 30 h, samples were withdrawn and analyzed for sugars, organic acids, and ethanol. Samples were also withdrawn at 24 h and yeast growth was monitored by optical density measurement at 600 nm.

yeast [2] = settings: 24 hours at 88° F.
Experimental: The samples were serially diluted and appropriate dilutions were plated on to Yeast extract-Malt extract (YM) agar plates. The plates were incubated at 30° C. and the colonies formed were counted after 48 h. The results were expressed as colony forming units (CFU) per mL.
Samples tested include a control with no acetic acid addition, and samples treated at 1200 ppm and 2400 ppm respectively.

yeast [3] = settings: 320 gal per 720,000 gal or 250 gal per 550,000 gal fermentor, added 1.5 hours into fill, 36% dry solids
Experimental: In commercial ethanol production facilities, acetic acid is thought to be inhibitory to yeast growth and fermentation. […] The dosage of acetic acid used is 320 gal per 720,000 gal fermentor or 250 gal per 550,000 gal fermentor and the acetic acid is added at 1.5 hours into fill of the fermentor (which would be about 1 hour after yeast inoculation from the yeast conditioning tank). […] A few batches were conducted with added acetic acid (primed) and a few batches were operated normally without additional acetic acid.

yeast [4] = system: yeast
Experimental: The entire experiment was conducted in duplicate.
In this experiment, corn that was ground using a hammer mill to >90% fines was obtained from a nearby biorefinery. […] The slurry (˜70 mL) was prepared by weighing out the appropriate amount of corn and water into each individual reactor. Lactoside247™ was added at 2.5 ppm to prevent any lactic acid bacterial contamination. Urea was added ˜0.24 g/L (4 mM) for a nitrogen source.
A raw starch hydrolyzing enzyme blend was added at 0.2 g/L. Everything was added to the reactor in such a way that the final volume in the reactor was 70 mL. […] (88° F.). […] (82° F.). Samples were withdrawn at 0, 24, 48, 72, and 88 hr of fermentation and analyzed for sugars, glycerol, organic acids and ethanol using HPLC.
About 4 mL of sample was withdrawn at each time point. These samples were centrifuged at 4500 rpm for 2 min. The supernatant was then filtered through a 0.2 μpore size filter into HPLC vials. […] An aliquot (5 μL) of the sample was injected by the auto-injector onto a reverse phase column (HPX-87H from BioRad Laboratories) maintained at 50° C. Aqueous sulfuric acid at 0.005M was used as the mobile phase (eluent). […] The components (sugars, organic acids, and ethanol) were identified and quantified using Waters Empower software.

CC(=O)O [acetic acid]
effect on ethanol conversion efficiency (yeast [1]; above 2500 ppm acetic acid, pH 4.5): inhibitory to fermentation
effect on ethanol conversion efficiency (yeast [1]; initial acetic acid between 2000 and 2500 ppm, pH 4.5, 30 hours at 32° C): stimulatory effect
reduction in cell counts (yeast [2]; initial acetic acid 1200 ppm): About 24%
reduction in cell counts (yeast [2]; initial acetic acid 2400 ppm): ~32%
ethanol production, primed vs no priming (yeast [3]): increased ethanol production
glycerol production, primed vs no priming (yeast [3]): decreases glycerol production significantly
effect on ethanol titers (yeast [4]; 0.12% to 0.24% (1200-2400 ppm) acetic acid, initial pH 4.7 or 5.2): increased ethanol titers
effect on ethanol production (yeast [4]; highest concentration tested 0.37% w/v, especially at pH 4.2): inhibitory effect
effect on ethanol production (yeast [4]; initial pH 4.2): No major benefits
maximum reduction in glycerol (yeast [4]; initial pH 4.7, initial acetic acid 0.24% w/v): over 50%
highest ethanol titer (yeast [4]; initial pH 4.7, initial acetic acid 0.24% w/v, 36% dry solids, 88 hr fermentation): 20.5 % v/v
